The text below walks through data of patent publication US20020064847A1, “NOVEL SECONDARY ALCOHOL DEHYDROGENASE, PROCESS FOR PREPARING SAID ENZYME, AND PROCESS FOR PREPARING ALCOHOLS AND KETONES USING SAID ENZYME” (priority 1996, published 2002).

Entries after “also recorded” stand apart in the source; their conditions may differ. Read-outs that look alike come from different tables or passages of the source.

The subject of test [1] is secondary alcohol dehydrogenase. In words: Substrate specificity, oxidation reaction. The note with it: coenzyme NAD+, (S)-1,3-butanediol-oxidizing activity = 100. The class given is biochemical, Geotrichum candidum IFO 4601. The protocol: (§1) In the present invention, secondary alcohol dehydrogenase activity was determined by allowing the enzyme to react in the reaction mixture containing potassium phosphate buffer (pH 8.0, 50 μmol), 2.5 μmol NAD^+, and 50μmol (S)-1,3-butanediol at 30° C. and measuring an increase of absorbance at 340 nm resulting from generation of NADH. One unit was defined as the amount of enzyme catalyzing generation of 1μmol of NADH per minute.
(§2) The secondary alcohol dehydrogenase was reacted with various alcohols and aldehydes. Its oxidation and reduction activities are shown in Table 1 as relative activities to (S)-1,3-butanediol-oxidizing activity and 4-hydroxy-2-butanone-reducing activity that are taken as 100.

The test system is the same in test [2]. The experiment in a line: Behavior of the secondary alcohol dehydrogenase to inhibitors (residual activity). The note with it: for Residual activity: 30° C. for 10 minutes. The test is classed as biochemical, Geotrichum candidum IFO 4601. The protocol: as §1
The secondary alcohol dehydrogenase was treated with various reagents at 30° C. for 10 minutes.

For test [3] the test system is unchanged. In words: Substrate specificity, reduction reaction. The class given is biochemical, Geotrichum candidum IFO 4601. The note with it: 4-hydroxy-2-butanone-reducing activity = 100. As to the method: The secondary alcohol dehydrogenase was examined for its activity of oxidation of (S)-1,3-butanediol and that of reduction of 4-hydroxy-2-butanone [which was measured under the same conditions as those used for measuring activity of oxidation of (S)-1,3-butanediol except for using NADH (0.4 μmol) instead of NAD^+] at different pHs using potassium-phosphate buffer (KPB), Tris-HCl buffer and Britten-Robinson buffer by measuring the decrease of absorbance at 340 nm accompanied with reduction of the amount of NADH. The activity is shown in FIGS. 3 and 4 as relative activity with taking the maximal activity as 100. The optimum pH in the reaction was 8.0-9.0 in the case of the oxidation of (S)-1,3-butanediol (FIG. 3) and 7.0 in the case of the reduction of 4-hydroxy-2-butanone (FIG. 4).
as §2

The test system is the same in test [4]. The experiment in a line: Substrate specificity, oxidation reaction. The test is classed as biochemical, Geotrichum candidum IFO 4601. The note with it: substrate 50 mM, coenzyme NADP+, (S)-1,3-butanediol-oxidizing activity = 100.
The test system is the same in test [5]. The experiment in a line: Enzyme kinetic analysis. The test is classed as biochemical, Geotrichum candidum IFO 4601. The protocol: as §1
The reaction rate constants of the purified secondary alcohol dehydrogenase to the following substrates were measured.

Test [6] has as its target primary alcohol dehydrogenase (SADH 1) (Saccharomyces cerevisiae, UniProt P00330). Conditions: SADH 1 from Saccharomyces cerevisiae; cited from earlier work.
Where [7] appears, read: substrate 100 mM, coenzyme NADH.

primary alcohol dehydrogenase (SADH 1), sequence (P00330 whole entry): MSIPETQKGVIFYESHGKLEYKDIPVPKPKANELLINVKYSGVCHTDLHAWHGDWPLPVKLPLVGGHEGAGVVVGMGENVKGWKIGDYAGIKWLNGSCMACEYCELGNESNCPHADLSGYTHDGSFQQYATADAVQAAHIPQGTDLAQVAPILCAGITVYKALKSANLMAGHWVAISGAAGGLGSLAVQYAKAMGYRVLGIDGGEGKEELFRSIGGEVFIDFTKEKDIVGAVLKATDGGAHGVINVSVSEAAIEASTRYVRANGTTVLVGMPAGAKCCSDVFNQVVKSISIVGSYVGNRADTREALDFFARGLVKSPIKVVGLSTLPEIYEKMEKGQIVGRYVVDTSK

Take 1-butanol: the Relative activity in test [1] (substrate 100 mM) turned out to be 12.9%.

For the compound 1-propanol, in test [1] (substrate 100 mM), the Relative activity is given as 15.5%. In the case of `O[C@H](CS)[C@H](O)CS` (racemic) [dithiothreitol], the Residual activity in test [2] (inhibitor 1.0 mM) came to 42.9%. Take `CCC(C)=O` [2-butanone]: in test [3] (setting [7]), the Relative activity came to 20.2%. In the case of `OCCS` [2-mercaptoethanol], the entries for the “Inhibition of the enzyme (in words)” value in test [2] and in test [2] (listed as 2-mercaptethanol) were “markedly inhibited” and “inhibited”, respectively. Also, in test [2] (inhibitor 0.01 mM), the Residual activity is 6.8%. As for `CC(C)O` [2-propanol], in test [1] (substrate 100 mM), the Relative activity amounted to 96.8%. Turning to `CC(=O)CCO` [4-hydroxy-2-butanone], the Relative activity stood at 100% in test [3] (substrate 20 mM, coenzyme NADH) and 0% in test [3] (substrate 20 mM, coenzyme NADPH).

On to `C[C@@H](O)CO` [(R)-1,2-propanediol], for which the Relative activity in test [1] (substrate 50 mM) is reported as 10.4%.

Turning to `C[C@@H](O)CCO` [(R)-1,3-butanediol], the Relative activity in test [4] is reported as 8.8%. The compound also gave an E value in test [5] ((S)- versus (R)-1,3-butanediol) of 33.0. Further, the Vmax in test [5] (purified enzyme) is listed as 4.43 U/mg of protein. For `C[C@@H](O)c1ccccc1` [(R)-1-phenylethanol], in test [1] (substrate 50 mM), the Relative activity was determined as 19.2%.

Turning to `CCCCCC[C@@H](C)O` [(R)-2-octanol], the Relative activity in test [1] (substrate 5 mM) is reported as 13.3%. On to `C[C@H](O)CO` [(S)-1,2-propanediol], for which, in test [1] (substrate 50 mM), the Relative activity is 23.8%. `C[C@H](O)CCO` [(S)-1,3-butanediol]: the Relative activity was 2.4% in test [4] and 100% in test [1] (substrate 50 mM). The Michaelis constant (Km) in test [5] (purified enzyme) was determined as 41.4 mM. Also, in test [5] (purified enzyme), the Vmax was 36.7 U/mg of protein.

Regarding `C[C@H](O)c1ccccc1` [(S)-1-phenylethanol], the Relative activity in test [1] (substrate 50 mM) is given as 267%.

Take `CCCCCC[C@H](C)O` [(S)-2-octanol]: in test [1] (substrate 5 mM), the Relative activity is reported as 187%. As for `CC(C)=O` [acetone], the Relative activity in test [3] (setting [7]) is 164%. Consider `CC(=O)c1ccccc1` [acetophenone], for which the Relative activity in test [3] (substrate 20 mM, coenzyme NADH) was determined as 122%. For `C=CCO` [allyl alcohol], the Relative activity in test [1] (substrate 100 mM) worked out at 18.7%.

Take `[Cl][Co][Cl]` [cobalt chloride]: the Residual activity in test [2] (inhibitor 1.0 mM) was found to be 81.0%. The compound `O=S(=O)([O-])[O-].[Cu+2]` [copper sulfate] yielded a Residual activity in test [2] (inhibitor 1.0 mM) of 71.5%. For the compound `OC1CCCCC1` [cyclohexanol], the Relative activity in test [1] (substrate 20 mM) is given as 90.4%. Turning to `CCO` [ethanol], the Relative activity in test [1] (substrate 100 mM) is recorded as 10.7%. As to `CCOC(=O)CC(C)=O` [ethyl acetoacetate], the Relative activity in test [3] (setting [7]) is reported as 96.8%. Take `O=C(O)CN(CCN(CC(=O)O)CC(=O)O)CC(=O)O` [ethylenediaminetetraacetic acid]: the “Inhibition of the enzyme (in words)” value in test [2] was “inhibited”. For the same compound, the results for the Residual activity in test [2] (inhibitor 1.0 mM) and in test [2] (inhibitor 10 mM) were 63.5% and 9.8%, respectively. With `OCC(O)CO` [glycerol], in test [1] (substrate 50 mM), the Relative activity is reported as 0%. As to `NC(=O)CI` [iodoacetamide], the “Inhibition of the enzyme (in words)” value in test [2] is reported as “perfectly inhibited; also recorded: markedly inhibited”. The Residual activity in test [2] (inhibitor 1.0 mM) is recorded as 2.4%.

Regarding `[Cl][Hg][Cl]` [mercuric chloride], the “Inhibition of the enzyme (in words)” value in test [2] is “markedly inhibited”; in test [2] (listed as mercury chloride) it was “inhibited”. For the same compound, in test [2] (inhibitor 1.0 mM), the Residual activity is recorded as 0.0%.

For `CO` [methanol], the Relative activity in test [1] (substrate 100 mM) is recorded as 60.8%. Regarding `COC(=O)C[C@@H](C)O` [methyl (R)-3-hydroxybutyrate], the Relative activity in test [1] (substrate 50 mM) is 22.1%.

For `COC(=O)C[C@H](C)O` [methyl (S)-3-hydroxybutyrate], the Relative activity in test [1] (substrate 50 mM) is recorded as 138%. Consider `O=C(O)c1cc[c]([Hg][Cl])cc1` [p-chloromercuribenzoic acid], for which the “Inhibition of the enzyme (in words)” value in test [2] is on record as “perfectly inhibited”; in test [2] (listed as parachloromercuribenzoic acid), “markedly inhibited”. Also, the Residual activity in test [2] (inhibitor 0.05 mM) came out at 0.0%.

Take `[Cl-].[Cl-].[Zn+2]` [zinc chloride]: the “Inhibition of the enzyme (in words)” value in test [2] is “markedly inhibited”. Besides, the Residual activity in test [2] (inhibitor 10 mM) is 0.9%. Turning to (R)-2-butanol, in test [1] (substrate 50 mM), the Relative activity is 60.0%. As for (RS)-2-butanol, the “Activity relative to ethanol” value in test [6] was “approximately 1%”. For the same compound, the Relative activity in test [1] (substrate 100 mM) turned out to be 85.9%.

For the compound (S)-2-butanol, the Relative activity in test [1] (substrate 50 mM) stood at 112%.

In general, Km refers to the concentration of substrate that gives half-maximal velocity.
